We go through 28 compounds from patent US20250026766A1, “Thiazolopyridyl Amide Derivatives as DNA Polymerase Theta Inhibitors” (BeiGene, Ltd., priority 2022, published 2025).

Each structure is given as a SMILES string.

For orientation: IC50 means the midpoint of a concentration-inhibition curve.

Chain of Pol Theta (1-894) (O75417 1-894): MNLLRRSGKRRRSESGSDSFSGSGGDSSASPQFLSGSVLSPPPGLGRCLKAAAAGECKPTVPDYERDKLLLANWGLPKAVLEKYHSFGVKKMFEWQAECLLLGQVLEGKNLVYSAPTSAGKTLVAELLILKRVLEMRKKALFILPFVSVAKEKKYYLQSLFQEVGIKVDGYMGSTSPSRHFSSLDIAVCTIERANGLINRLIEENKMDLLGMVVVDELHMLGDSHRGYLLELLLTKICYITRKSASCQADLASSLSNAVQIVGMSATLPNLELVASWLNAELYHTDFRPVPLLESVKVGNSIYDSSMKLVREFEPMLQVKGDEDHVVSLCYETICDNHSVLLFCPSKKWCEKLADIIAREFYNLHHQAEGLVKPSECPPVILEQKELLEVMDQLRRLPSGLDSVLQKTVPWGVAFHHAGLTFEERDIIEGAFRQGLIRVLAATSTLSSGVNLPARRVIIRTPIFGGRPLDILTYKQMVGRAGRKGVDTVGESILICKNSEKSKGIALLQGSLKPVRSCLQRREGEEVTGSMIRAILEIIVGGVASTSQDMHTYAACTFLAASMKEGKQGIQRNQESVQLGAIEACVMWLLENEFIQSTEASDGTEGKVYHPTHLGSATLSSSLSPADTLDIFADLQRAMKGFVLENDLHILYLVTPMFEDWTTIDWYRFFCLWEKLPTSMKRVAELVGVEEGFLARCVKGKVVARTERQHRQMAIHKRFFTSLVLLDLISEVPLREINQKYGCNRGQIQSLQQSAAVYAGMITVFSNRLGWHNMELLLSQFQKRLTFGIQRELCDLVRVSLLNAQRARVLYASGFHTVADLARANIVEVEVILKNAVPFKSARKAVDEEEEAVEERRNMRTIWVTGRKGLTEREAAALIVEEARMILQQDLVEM

The assay concerns the target Pol Theta (1-894) (Homo sapiens (Human), UniProt O75417). Description: Biochemical Pol Theta (1-894) ATPase IC50 assay (ADP-Glo, ssDNA substrate). As to conditions: ADP-Glo assay with ssDNA substrate, room temperature. Here is the method: Baculovirus Expression of Human POL theta (1-894)
Human POL Theta (1-894)-His-pFastBac1 baculovirus samples were generated using the Bac-to-Bac baculovirus expression system (Invitrogen) according to the manufacturer's protocol. […] Baculovirus amplification was achieved using infected SF9 cells at 1:2000 virus/cells ratios, and grown for 96 hours at 27° C. post-transfection. The expression scaled up for each protein was carried out in the flask 3 L from CORNING. 4 L of 3×10^6 cells/mL Sf9 cells (Expression System, Invitrogen) grown in SF900TM II SFM insect medium (Expression System) were infected with virus stock at 1:200 virus/cell ratios, and grown for 48 hours at 27° C. post-transfection. The infected cell culture was harvested by centrifugation at 6000 rpm for 15 min 4° C. in a SORVALL LYNX6000 centrifuge. The cell pellets were stored at −80° C.
The human POL Theta (1-894)-His produced as described above, were purified from Sf9 baculovirus-infected insect cell paste. The cells were lysed using sonication method, and the lysates were clarified by centrifugation.
Enzymatic reactions of Pol Theta (1-894) were performed using ADP-Glo assay with ssDNA substrate. Pol Theta (1-894) was expressed in baculovirus expression system. The inhibition activities testing for the compound disclosed herein were carried out at room temperature in assay buffer containing 40 mM Tris pH 7.5, 20 mM MgCl2, 1 mM DTT, 0.01% BSA and 0.05% Tween-20. Compounds in DMSO were dispensed into wells of a black 384 well plate (Corning 4514) using D300e digital dispenser (Tecan). The ranges of compounds final concentration were 2.62 nM˜10000 nM. 3 μL 2× enzyme solution containing 12.5 nM enzyme was added to wells. […] After 1 hour reaction, 5 μL ADP-Glo reagent (Promga V9102) was added and incubated for 40 minutes. 10 μL Kinase Detection reagent was added and incubated for 40 minutes. Luminescence was measured on a microplate reader (PHERAstar FSX, BMG labtech). The IC50 values were calculated based on inhibition of enzyme activity in the presence of increasing concentrations of compounds.
In turn, `COc1ccccc1-c1cnncc1C(=O)Nc1nc2ccc(-c3ccc(Cl)cn3)nc2s1` [Example 55, N-(5-(5-chloropyridin-2-yl)thiazolo[5,4-b]pyridin-2-yl)-5-(2-methoxyphenyl)pyridazine-4-carboxamide] came in with an IC50 of 5 nM. `COc1ccccc1-c1cnncc1C(=O)Nc1nc2ccc(-c3ccc(N(C)C(C)=O)cc3)nc2s1` [Example 56, 5-(2-methoxyphenyl)-N-(5-(4-(N-methylacetamido)phenyl)thiazolo[5,4-b]pyridin-2-yl)pyridazine-4-carboxamide] showed an IC50 of 15 nM. Compound `COc1ccc(C2CC2)cc1-c1cc(C)ncc1C(=O)Nc1nc2ccc(-c3ccc(C#N)cc3)nc2s1` [Example 57, N-(5-(4-cyanophenyl)thiazolo[5,4-b]pyridin-2-yl)-4-(5-cyclopropyl-2-methoxyphenyl)-6-methylnicotinamide] gave an IC50 of 58 nM. Compound `COc1ccc(C#N)cc1-c1cc(Cl)ncc1C(=O)Nc1nc2ccc(-c3ccc(N4CCOCC4)cc3)nc2s1` [Example 58, 6-chloro-4-(5-cyano-2-methoxyphenyl)-N-(5-(4-morpholinophenyl)thiazolo[5,4-b]pyridin-2-yl)nicotinamide] displayed an IC50 of 101 nM.

As to `COc1ccc(C#N)cc1-c1cc(C)ncc1C(=O)Nc1nc2ccc(-c3ccc(N4CCOCC4)cc3)nc2s1` [Example 59, 4-(5-cyano-2-methoxyphenyl)-6-methyl-N-(5-(4-morpholinophenyl)thiazolo[5,4-b]pyridin-2-yl)nicotinamide], the IC50 worked out at 98 nM. Then `COc1ccc(C#N)cc1-c1cc(C)ncc1C(=O)Nc1nc2ccc(N3CCOCC3)nc2s1` [Example 60, 4-(5-cyano-2-methoxyphenyl)-6-methyl-N-(5-morpholinothiazolo[5,4-b]pyridin-2-yl)nicotinamide], with 361 nM; and `Cc1cc(-c2cccc3[nH]ncc23)c(C(=O)Nc2nc3ccc(-c4ccc(C#N)cc4)nc3s2)cn1` [Example 61, N-(5-(4-cyanophenyl)thiazolo[5,4-b]pyridin-2-yl)-4-(1H-indazol-4-yl)-6-methylnicotinamide], with 121 nM; and `COc1ccccc1-c1cnncc1C(=O)Nc1nc2ccc(CCc3ccc(Cl)cc3)nc2s1` [Example 62, N-(5-(4-chlorophenethyl)thiazolo[5,4-b]pyridin-2-yl)-5-(2-methoxyphenyl)pyridazine-4-carboxamide], with 24 nM.

On to `COc1ccccc1-c1cnncc1C(=O)Nc1nc2ccc(C#Cc3ccc(Cl)cc3)nc2s1` [Example 63, N-(5-((4-chlorophenyl)ethynyl)thiazolo[5,4-b]pyridin-2-yl)-5-(2-methoxyphenyl)pyridazine-4-carboxamide], for which the IC50 amounted to 31 nM. Then `Cc1cc(-c2ccccc2CO)c(C(=O)Nc2nc3ccc(-c4ccc(C#N)cc4)nc3s2)cn1` [Example 64, N-(5-(4-cyanophenyl)thiazolo[5,4-b]pyridin-2-yl)-4-(2-(hydroxymethyl)phenyl)-6-methylnicotinamide], with 186 nM; and `COc1ccc(C#N)cc1-c1cc(C)ncc1C(=O)Nc1nc2ccc(OCCN3CCOCC3)nc2s1` [Example 65, 4-(5-cyano-2-methoxyphenyl)-6-methyl-N-(5-(2-morpholinoethoxy)thiazolo[5,4-b]pyridin-2-yl)nicotinamide], with 224 nM. `COCc1ccc(OC)c(-c2cc(C)ncc2C(=O)Nc2nc3ccc(-c4ccc(C#N)cc4)nc3s2)c1` [Example 66, N-(5-(4-cyanophenyl)thiazolo[5,4-b]pyridin-2-yl)-4-(2-methoxy-5-(methoxymethyl)phenyl)-6-methylnicotinamide] displayed an IC50 of 99 nM. Consider `COc1ccc(C#N)cc1-c1cc(C)ncc1C(=O)Nc1nc2ccc(C3CCOCC3)nc2s1` [Example 67, 4-(5-cyano-2-methoxyphenyl)-6-methyl-N-(5-(tetrahydro-2H-pyran-4-yl)thiazolo[5,4-b]pyridin-2-yl)nicotinamide], for which the IC50 was 64 nM. As for `Cc1cc(-c2cccc3c2OCO3)c(C(=O)Nc2nc3ccc(-c4ccc(C#N)cc4)nc3s2)cn1` [Example 68, 4-(benzo[d][1,3]dioxol-4-yl)-N-(5-(4-cyanophenyl)thiazolo[5,4-b]pyridin-2-yl)-6-methylnicotinamide], 253 nM corresponded to half-maximal inhibition (IC50).

Take `COc1ccccc1-c1cnncc1C(=O)Nc1nc2ccc(Cc3ccc(Cl)cc3)nc2s1` [Example 69, N-(5-(4-chlorobenzyl)thiazolo[5,4-b]pyridin-2-yl)-5-(2-methoxyphenyl)pyridazine-4-carboxamide]: the IC50 was 45 nM. Compound `Cc1cc(-c2cccc3c2OCC(=O)N3)c(C(=O)Nc2nc3ccc(-c4ccc(C#N)cc4)nc3s2)cn1` [Example 70, N-(5-(4-cyanophenyl)thiazolo[5,4-b]pyridin-2-yl)-6-methyl-4-(3-oxo-3,4-dihydro-2H-benzo[b][1,4]oxazin-8-yl)nicotinamide] yielded an IC50 of 193 nM. `COc1ccccc1-c1cnncc1C(=O)Nc1nc2ccc(-c3ccc(NC(=O)C4CC4)cc3)nc2s1` [Example 71, N-(5-(4-(cyclopropanecarboxamido)phenyl)thiazolo[5,4-b]pyridin-2-yl)-5-(2-methoxyphenyl)pyridazine-4-carboxamide]: the IC50 came to 83 nM. On to `COc1ccccc1-c1cc(C)ncc1C(=O)Nc1nc2ccc(-c3ccc(C#N)cc3)nc2s1` [Example 72, N-(5-(4-cyanophenyl)thiazolo[5,4-b]pyridin-2-yl)-4-(2-methoxyphenyl)-6-methylnicotinamide], for which the IC50 amounted to 59 nM. `CCNC(=O)c1ccc(-c2ccc3nc(NC(=O)c4cnc(C)cc4-c4cc(C#N)ccc4OC)sc3n2)cc1` [Example 73, 4-(5-cyano-2-methoxyphenyl)-N-(5-(4-(ethylcarbamoyl)phenyl)thiazolo[5,4-b]pyridin-2-yl)-6-methylnicotinamide] had an IC50 of 15 nM.

Regarding `COc1ccc(C#N)cc1-c1cc(C)ncc1C(=O)Nc1nc2ccc(-c3ccc(C(=O)NC(C)C)cc3)nc2s1` [Example 74, 4-(5-cyano-2-methoxyphenyl)-N-(5-(4-(isopropylcarbamoyl)phenyl)thiazolo[5,4-b]pyridin-2-yl)-6-methylnicotinamide], half-maximal inhibition (IC50) was put at 73 nM. As for `COc1c(F)cccc1-c1cc(C)ncc1C(=O)Nc1nc2ccc(-c3ccc(C#N)cc3)nc2s1` [Example 75, N-(5-(4-cyanophenyl)thiazolo[5,4-b]pyridin-2-yl)-4-(3-fluoro-2-methoxyphenyl)-6-methylnicotinamide], half-maximal inhibition (IC50) was put at 32 nM. `COc1ccc([N+](=O)[O-])cc1-c1cc(C)ncc1C(=O)Nc1nc2ccc(-c3ccc(C#N)cc3)nc2s1` [Example 76, N-(5-(4-cyanophenyl)thiazolo[5,4-b]pyridin-2-yl)-4-(2-methoxy-5-nitrophenyl)-6-methylnicotinamide] came in with an IC50 of 5.8 nM. Regarding `COCCOc1ccc2nc(NC(=O)c3cnc(C)cc3-c3cc(C#N)ccc3OC)sc2n1` [Example 77, 4-(5-cyano-2-methoxyphenyl)-N-(5-(2-methoxyethoxy)thiazolo[5,4-b]pyridin-2-yl)-6-methylnicotinamide], the IC50 was 50 nM. Then `COc1ccc(C#N)cc1-c1cc(C)ncc1C(=O)Nc1nc2ccc(-c3ccc(N4CCCC4=O)c(C)c3)nc2s1` [Example 78, 4-(5-cyano-2-methoxyphenyl)-6-methyl-N-(5-(3-methyl-4-(2-oxopyrrolidin-1-yl)phenyl)thiazolo[5,4-b]pyridin-2-yl)nicotinamide], with 7.5 nM; and `COCc1ccc(-c2ccc3nc(NC(=O)c4cnc(C)cc4-c4cc(C#N)ccc4OC)sc3n2)cc1` [Example 79, 4-(5-cyano-2-methoxyphenyl)-N-(5-(4-(methoxymethyl)phenyl)thiazolo[5,4-b]pyridin-2-yl)-6-methylnicotinamide], with 41 nM; and `COc1ccc(C#N)cc1-c1cc(C)ncc1C(=O)Nc1nc2ccc(-c3ccc(C(C)(C)O)cc3)nc2s1` [Example 80, 4-(5-cyano-2-methoxyphenyl)-N-(5-(4-(2-hydroxypropan-2-yl)phenyl)thiazolo[5,4-b]pyridin-2-yl)-6-methylnicotinamide], with 26 nM. In turn, `COc1ccccc1-c1cnncc1C(=O)Nc1nc2ccc(-c3ccc(S(C)(=O)=O)cc3)nc2s1` [Example 81, 5-(2-methoxyphenyl)-N-(5-(4-(methylsulfonyl)phenyl)thiazolo[5,4-b]pyridin-2-yl)pyridazine-4-carboxamide] displayed an IC50 of 7.7 nM. Take `COc1c(C#N)cccc1-c1cc(C)ncc1C(=O)Nc1nc2ccc(-c3ccc(C#N)cc3)nc2s1` [Example 82, 4-(3-cyano-2-methoxyphenyl)-N-(5-(4-cyanophenyl)thiazolo[5,4-b]pyridin-2-yl)-6-methylnicotinamide]: the IC50 came out at 272 nM.
